Measurements published in patent US5492910A, “Retrocarbamate protease inhibitors” (Bristol-Myers Squibb Co., priority 1994, dated 1996).

Legend:
HIV (CEM Cells) = test: Cell Culture Anti-HIV Activity (formazan cell viability of HIV-infected CEM-SS cells); type: cell-based; conditions: Human immunodeficiency virus 1, CCRF-CEM, 144 h; CEM-SS cells infected with RF strain of HIV, multiplicity of infection 0.04, 6 days at 37° C.; concentration raising formazan production to 50% of uninfected cells
Experimental: The antiviral activity of the retrocarbamate protease inhibitors of the present invention was evaluated by a microculture method which determines the increase in cell viability of an infected culture when a drug is added. The assay depends on the metabolic reduction of tetrazolium reagent by viable cells to yield a soluble colored formazan product. The assay was performed as follows: suspensions of CEM--SS cells (5000/well) were infected with the RF strain of HIV at a multiplicity of infection at 0.04 in a 96-well plate. The compounds of the present invention listed in the following Table 1, serially diluted in half-log fashion, were added to the infected and uninfected control cells. Untreated (infected and uninfected) cells were included as controls. Following incubation for 6 days at 37° C., viable cells in each well were quantitated by the visible light absorbance at 450 nm. The IC50 was calculated as the concentration of drug that increased the formazan production in virally infected cells to 50% of that produced by uninfected cells in the absence of drug.

HIV protease = biological target: T1, HIV protease (Human immunodeficiency virus type 1 group M subtype B, UniProt P04585); test: HIV Protease Assay; type: biochemical; conditions: 10 μM inhibitor, 4% DMSO, 450 μM substrate, pH 5.5, 30 minutes at 37° C.
T1 construct: purified protease
Experimental: An HIV protease standard assay was performed in a 60 μl reaction medium containing 50 mM sodium acetate, pH 5.5, 100 μg/ml bovine serum, 450 μM substrate (H2 N-Val-Ser-Gin-Asn-( β-naphthyl-alanine)-Pro-Val-Ile-OH), and purified protease. The reaction medium was incubated for 30 minutes at 37° C., quenched by the addition of 140 μl 5% H3 PO4, then analyzed by reverse phase HPLC using UV220 detection. In a typical control assay, 7% of the substrate was hydrolyzed. The retrocarbamate protease inhibitors of the present invention, listed in the following Table 1, were then employed in the assay, for which purpose they were prepared as a […] solution in DMSO then diluted to 30 μM with 50 mM sodium acetate/bovine serum albumen. This working stock was then diluted three-fold into the protease reaction medium, for a final concentration of 10 μM inhibitor and 4% DMSO.

Row | inhibition at 10 µM (HIV protease) | Compound | IC50 (HIV (CEM Cells))
1 | 90% | CC(C)(C)NC(=O)O[C@@H](Cc1ccccc1)[C@H](O)CNC[C@@H](O)[C@H](Cc1ccc(OCC(=O)N2CCOCC2)cc1)NC(=O)OC(C)(C)C [Example 2, [1S-[1R*,2S* (2S*,3R*)]]-[3-[[3-[[[(1,1-Dimethylethyl)amino]carbonyl]oxy]-2-hydroxy-4-phenylbutyl]amino]-2-hydroxy-1-[[4-[2-(morpholinyl)-2-oxoethoxy]phenyl]methyl]propyl]carbamic acid, 1,1-dimethylethyl ester] | 200 nM
2 | 98% | CC(C)(C)NC(=O)O[C@@H](Cc1ccccc1)[C@H](O)CNC[C@@H](O)[C@H](Cc1ccccc1)NC(=O)[C@](C)(O)C(C)(C)C [Example 3, [1S-[1R*, 2S*[2S*, 3R* (S*)]]]-(1,1-Dimethylethyl)carbamic acid, 3-[[3-[(2-hydroxy-2,3,3-trimethyl-1-oxobutyl)amino]-2-hydroxy-4-phenylbutyl]amino]-2-hydroxy-1-(phenylmethyl)propyl ester] | 100 nM
3 | 98% | CC(C)(C)NC(=O)O[C@@H](Cc1ccccc1)[C@H](O)CNC[C@@H](O)[C@H](Cc1ccccc1)NC(=O)OC(C)(C)C [Example 1, [1S-[1R*,2S*(2S*,3R*)]]-[3-[[3-[[[(1,1-Dimethylethyl)amino]carbonyl]oxy]-2-hydroxy-4-phenylbutyl]amino]-2-hydroxy-1-(phenylmethyl)-propyl]carbamic acid, 1,1-dimethyl ester] | 460 nM
